{"source": "PubChem BioAssay (NCI)", "assay_in_all_cases": "growth of human tumour cells (NCI), 48 h", "key": {"SN12C renal": {"system": "SN12C renal"}, "MALME-3M melanoma": {"system": "MALME-3M melanoma"}, "NCI-H460 lung": {"system": "NCI-H460 lung"}, "UO-31 renal": {"system": "UO-31 renal"}, "OVCAR-5 ovarian": {"system": "OVCAR-5 ovarian"}, "NCI-H522 lung": {"system": "NCI-H522 lung"}, "NCI-H226 lung": {"system": "NCI-H226 lung"}, "SF-268 CNS": {"system": "SF-268 CNS"}, "MOLT-4 leukemia": {"system": "MOLT-4 leukemia"}, "SNB-78 CNS": {"system": "SNB-78 CNS"}, "HOP-18 NSCLC": {"system": "HOP-18 NSCLC"}, "ACHN renal": {"system": "ACHN renal"}, "CAKI-1 renal": {"system": "CAKI-1 renal"}, "RXF-631 renal": {"system": "RXF-631 renal"}, "K-562 leukemia": {"system": "K-562 leukemia"}, "EKVX NSCLC": {"system": "EKVX NSCLC"}, "COLO 205 colon": {"system": "COLO 205 colon"}, "DMS 273 small cell lung": {"system": "DMS 273 small cell lung"}, "HT29 colon": {"system": "HT29 colon"}, "DMS 114 small cell lung": {"system": "DMS 114 small cell lung"}, "HCT-15 colon": {"system": "HCT-15 colon"}, "NCI-H23 lung": {"system": "NCI-H23 lung"}, "XF 498 CNS": {"system": "XF 498 CNS"}, "DLD-1 colon": {"system": "DLD-1 colon"}, "M14 melanoma": {"system": "M14 melanoma"}, "HOP-92 NSCLC": {"system": "HOP-92 NSCLC"}, "SF-295 CNS": {"system": "SF-295 CNS"}, "KM20L2 colon": {"system": "KM20L2 colon"}, "TK-10 renal": {"system": "TK-10 renal"}, "SK-MEL-2 melanoma": {"system": "SK-MEL-2 melanoma"}, "HCT-116 colon": {"system": "HCT-116 colon"}, "OVCAR-4 ovarian": {"system": "OVCAR-4 ovarian"}, "OVCAR-3 ovarian": {"system": "OVCAR-3 ovarian"}, "CCRF-CEM leukemia": {"system": "CCRF-CEM leukemia"}, "HCC-2998 colon": {"system": "HCC-2998 colon"}, "A549 NSCLC": {"system": "A549 NSCLC"}, "UACC-62 melanoma": {"system": "UACC-62 melanoma"}, "SW-620 colon": {"system": "SW-620 colon"}, "SK-MEL-5 melanoma": {"system": "SK-MEL-5 melanoma"}, "M19-MEL melanoma": {"system": "M19-MEL melanoma"}, "SK-OV-3 ovarian": {"system": "SK-OV-3 ovarian"}, "IGROV1 ovarian": {"system": "IGROV1 ovarian"}, "LXFL 529 NSCLC": {"system": "LXFL 529 NSCLC"}, "SK-MEL-28 melanoma": {"system": "SK-MEL-28 melanoma"}, "HL-60(TB) leukemia": {"system": "HL-60(TB) leukemia"}, "U251 CNS": {"system": "U251 CNS"}, "RPMI-8226 leukemia": {"system": "RPMI-8226 leukemia"}, "KM12 colon": {"system": "KM12 colon"}, "786-0 renal": {"system": "786-0 renal"}, "SNB-75 CNS": {"system": "SNB-75 CNS"}, "SNB-19 CNS": {"system": "SNB-19 CNS"}, "OVCAR-8 ovarian": {"system": "OVCAR-8 ovarian"}, "SR leukemia": {"system": "SR leukemia"}, "HOP-62 NSCLC": {"system": "HOP-62 NSCLC"}, "A498 renal": {"system": "A498 renal"}, "RXF 393 renal": {"system": "RXF 393 renal"}, "LOX IMVI melanoma": {"system": "LOX IMVI melanoma"}, "UACC-257 melanoma": {"system": "UACC-257 melanoma"}, "SF-539 CNS": {"system": "SF-539 CNS"}}, "note": "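Five concentrations, 48 hours, 96-well plates. Definition used: TGI = concentration required for complete inhibition of growth.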", "data": [{"molecule": "Cc1ccc(C2CC(c3cccc([N+](=O)[O-])c3)=Nc3ccccc3S2)cc1", "note": "(centres undefined)", "values": [{"measurement": "TGI", "setting": "SN12C renal", "result": "> 90.4", "unit": "µM"}, {"measurement": "TGI", "setting": "MALME-3M melanoma", "result": "> 100", "unit": "µM"}, {"measurement": "TGI", "setting": "NCI-H460 lung", "result": "> 100", "unit": "µM"}, {"measurement": "TGI", "setting": "UO-31 renal", "result": "> 83.6", "unit": "µM"}, {"measurement": "TGI", "setting": "OVCAR-5 ovarian", "result": "> 100", "unit": "µM"}, {"measurement": "TGI", "setting": "NCI-H522 lung", "result": 64.6, "unit": "µM"}, {"measurement": "TGI", "setting": "NCI-H226 lung", "result": "> 100", "unit": "µM"}, {"measurement": "TGI", "setting": "SF-268 CNS", "result": 99.1, "unit": "µM"}, {"measurement": "TGI", "setting": "MOLT-4 leukemia", "result": "> 81.8", "unit": "µM"}, {"measurement": "TGI", "setting": "SNB-78 CNS", "result": "> 31.6", "unit": "µM"}, {"measurement": "TGI", "setting": "HOP-18 NSCLC", "result": "> 100", "unit": "µM"}, {"measurement": "TGI", "setting": "ACHN renal", "result": "> 100", "unit": "µM"}, {"measurement": "TGI", "setting": "CAKI-1 renal", "result": "> 100", "unit": "µM"}, {"measurement": "TGI", "setting": "RXF-631 renal", "result": "> 100", "unit": "µM"}, {"measurement": "TGI", "setting": "K-562 leukemia", "result": 77.2, "unit": "µM"}, {"measurement": "TGI", "setting": "EKVX NSCLC", "result": "> 100", "unit": "µM"}, {"measurement": "TGI", "setting": "COLO 205 colon", "result": "> 100", "unit": "µM"}, {"measurement": "TGI", "setting": "DMS 273 small cell lung", "result": "> 100", "unit": "µM"}, {"measurement": "TGI", "setting": "HT29 colon", "result": 98.1, "unit": "µM"}, {"measurement": "TGI", "setting": "DMS 114 small cell lung", "result": 57.2, "unit": "µM"}, {"measurement": "TGI", "setting": "HCT-15 colon", "result": "> 100", "unit": "µM"}, {"measurement": "TGI", "setting": "NCI-H23 lung", "result": "> 76.4", "unit": "µM"}, {"measurement": "TGI", "setting": "XF 498 CNS", "result": "> 100", "unit": "µM"}, {"measurement": "TGI", "setting": "DLD-1 colon", "result": "> 65", "unit": "µM"}, {"measurement": "TGI", "setting": "M14 melanoma", "result": "> 100", "unit": "µM"}, {"measurement": "TGI", "setting": "HOP-92 NSCLC", "result": 52.2, "unit": "µM"}, {"measurement": "TGI", "setting": "SF-295 CNS", "result": "> 100", "unit": "µM"}, {"measurement": "TGI", "setting": "KM20L2 colon", "result": "> 100", "unit": "µM"}, {"measurement": "TGI", "setting": "TK-10 renal", "result": "> 100", "unit": "µM"}, {"measurement": "TGI", "setting": "SK-MEL-2 melanoma", "result": "> 100", "unit": "µM"}, {"measurement": "TGI", "setting": "HCT-116 colon", "result": 27.1, "unit": "µM"}, {"measurement": "TGI", "setting": "OVCAR-4 ovarian", "result": "> 100", "unit": "µM"}, {"measurement": "TGI", "setting": "OVCAR-3 ovarian", "result": "> 74.7", "unit": "µM"}, {"measurement": "TGI", "setting": "CCRF-CEM leukemia", "result": "> 81.8", "unit": "µM"}, {"measurement": "TGI", "setting": "HCC-2998 colon", "result": "> 100", "unit": "µM"}, {"measurement": "TGI", "setting": "A549 NSCLC", "result": "> 100", "unit": "µM"}, {"measurement": "TGI", "setting": "UACC-62 melanoma", "result": "> 100", "unit": "µM"}, {"measurement": "TGI", "setting": "SW-620 colon", "result": 46.2, "unit": "µM"}, {"measurement": "TGI", "setting": "SK-MEL-5 melanoma", "result": "> 72.2", "unit": "µM"}, {"measurement": "TGI", "setting": "M19-MEL melanoma", "result": "> 100", "unit": "µM"}, {"measurement": "TGI", "setting": "SK-OV-3 ovarian", "result": "> 100", "unit": "µM"}, {"measurement": "TGI", "setting": "IGROV1 ovarian", "result": "> 100", "unit": "µM"}, {"measurement": "TGI", "setting": "LXFL 529 NSCLC", "result": "> 100", "unit": "µM"}, {"measurement": "TGI", "setting": "SK-MEL-28 melanoma", "result": "> 100", "unit": "µM"}, {"measurement": "TGI", "setting": "HL-60(TB) leukemia", "result": 47.5, "unit": "µM"}, {"measurement": "TGI", "setting": "U251 CNS", "result": "> 79.5", "unit": "µM"}, {"measurement": "TGI", "setting": "RPMI-8226 leukemia", "result": 41.7, "unit": "µM"}, {"measurement": "TGI", "setting": "KM12 colon", "result": 46.1, "unit": "µM"}, {"measurement": "TGI", "setting": "786-0 renal", "result": 51.9, "unit": "µM"}, {"measurement": "TGI", "setting": "SNB-75 CNS", "result": "> 96.1", "unit": "µM"}, {"measurement": "TGI", "setting": "SNB-19 CNS", "result": "> 100", "unit": "µM"}, {"measurement": "TGI", "setting": "OVCAR-8 ovarian", "result": "> 71.4", "unit": "µM"}, {"measurement": "TGI", "setting": "SR leukemia", "result": "> 100", "unit": "µM"}, {"measurement": "TGI", "setting": "HOP-62 NSCLC", "result": "> 100", "unit": "µM"}, {"measurement": "TGI", "setting": "A498 renal", "result": "> 100", "unit": "µM"}, {"measurement": "TGI", "setting": "RXF 393 renal", "result": "> 89.3", "unit": "µM"}, {"measurement": "TGI", "setting": "LOX IMVI melanoma", "result": 51.9, "unit": "µM"}, {"measurement": "TGI", "setting": "UACC-257 melanoma", "result": "> 100", "unit": "µM"}, {"measurement": "TGI", "setting": "SF-539 CNS", "result": "> 96.3", "unit": "µM"}]}]}
